Laboratory results taken from PMC6414696 (mBio, 2019).
≈ marks a conversion by molar mass, not a printed value. Where two headings read alike, the source gives them in different places.

Tests used:
[1] = tested on: A. baumannii clinical isolates; assay: microbe, parasite or virus in culture; assay type: cell-based, Acinetobacter baumannii; conditions: for MIC: Acinetobacter baumannii
[2] = tested on: A. baumannii (ATCC 17978); assay type: cell-based, Acinetobacter baumannii; conditions: ETX2514 at 4 mg/liter in combination
A. nosocomialis (M2) = assay type: cell-based, Acinetobacter nosocomialis; conditions: ETX2514 at 4 mg/liter in combination
A. baumannii ARC5955 [3] = assay: Neutropenic murine thigh infection model; assay type: in vivo; conditions: thigh tissue, CD-1 mice, 24 h after initiation of therapy, 75 mg/kg SC/q3h; for Change in log10 CFU/g: 75 mg/kg
OXA-66 β-lactamase = OXA-66 β-lactamase (Acinetobacter baumannii, UniProt Q58XD2); assay: β-Lactamase steady-state kinetic analysis, OXA-66; assay type: biochemical, A. baumannii; conditions: OXA-66; data not shown
A. baumannii isolates = conditions: panel of A. baumannii isolates in a previous study; cited from earlier work
A. baumannii ARC5955 [4] = conditions: A. baumannii ARC5955 carrying blaTEM-1, blaADC-82, blaOXA-23, blaOXA-66; cited from earlier work

OXA-66 β-lactamase, sequence (Q58XD2 entry or part of it): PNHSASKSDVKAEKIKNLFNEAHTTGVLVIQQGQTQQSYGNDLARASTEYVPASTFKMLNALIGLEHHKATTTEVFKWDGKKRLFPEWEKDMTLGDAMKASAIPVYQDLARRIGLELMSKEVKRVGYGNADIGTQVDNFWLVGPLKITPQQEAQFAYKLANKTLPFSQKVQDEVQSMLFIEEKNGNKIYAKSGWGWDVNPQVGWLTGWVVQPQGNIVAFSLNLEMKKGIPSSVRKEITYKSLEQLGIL

CC1(C)[C@H](C(=O)O)N2C(=O)C[C@H]2S1(=O)=O [Sulbactam]
MIC90 ([1]; 72 WRAMC A. baumannii isolates, ETX2514 at 4 mg/liter in combination): 32 µg/mL | isolates resistant (MIC ≥ 16 mg/liter) ([1]; 72 WRAMC isolates (34/72)): 47% | MIC ([1]; strain AB001, ETX2514 at 4 mg/liter in combination): 16 µg/mL | MIC ([1]; strain AB002, ETX2514 at 4 mg/liter in combination): 8 µg/mL | MIC ([1]; strain AB003, ETX2514 at 4 mg/liter in combination): 8 µg/mL | MIC ([1]; strain AB004, ETX2514 at 4 mg/liter in combination): 4 µg/mL | MIC ([1]; strain AB005, ETX2514 at 4 mg/liter in combination): 4 µg/mL | MIC ([1]; strain AB006, ETX2514 at 4 mg/liter in combination): 4 µg/mL | MIC ([1]; strain AB007, ETX2514 at 4 mg/liter in combination): 4 µg/mL | MIC ([1]; strain AB008, ETX2514 at 4 mg/liter in combination): 4 µg/mL | MIC ([1]; strain AB009, ETX2514 at 4 mg/liter in combination): 4 µg/mL | MIC ([1]; strain AB010, ETX2514 at 4 mg/liter in combination): 4 µg/mL | MIC ([1]; strain AB011, ETX2514 at 4 mg/liter in combination): 8 µg/mL | MIC ([1]; strain AB012, ETX2514 at 4 mg/liter in combination): 4 µg/mL | MIC ([1]; strain AB013, ETX2514 at 4 mg/liter in combination): 4 µg/mL | MIC ([1]; strain AB014, ETX2514 at 4 mg/liter in combination): 4 µg/mL | MIC ([1]; strain AB015, ETX2514 at 4 mg/liter in combination): 4 µg/mL | MIC ([1]; strain AB016, ETX2514 at 4 mg/liter in combination): 4 µg/mL | MIC ([1]; strain AB017, ETX2514 at 4 mg/liter in combination): 32 µg/mL | MIC ([1]; strain AB018, ETX2514 at 4 mg/liter in combination): 64 µg/mL | MIC ([1]; strain AB019, ETX2514 at 4 mg/liter in combination): 16 µg/mL | MIC ([1]; strain AB020, ETX2514 at 4 mg/liter in combination): 16 µg/mL | MIC ([1]; strain AB021, ETX2514 at 4 mg/liter in combination): 16 µg/mL | MIC ([1]; strain AB022, ETX2514 at 4 mg/liter in combination): 16 µg/mL | MIC ([1]; strain AB023, ETX2514 at 4 mg/liter in combination): 16 µg/mL | MIC ([1]; strain AB024, ETX2514 at 4 mg/liter in combination): 16 µg/mL | MIC ([1]; strain AB025, ETX2514 at 4 mg/liter in combination): 16 µg/mL | MIC ([1]; strain AB026, ETX2514 at 4 mg/liter in combination): 16 µg/mL | MIC ([1]; strain AB027, ETX2514 at 4 mg/liter in combination): 16 µg/mL | MIC ([1]; strain AB028, ETX2514 at 4 mg/liter in combination): 16 µg/mL | MIC ([1]; strain AB029, ETX2514 at 4 mg/liter in combination): 16 µg/mL | MIC ([1]; strain AB030, ETX2514 at 4 mg/liter in combination): 16 µg/mL | MIC ([1]; strain AB031, ETX2514 at 4 mg/liter in combination): 16 µg/mL | MIC ([1]; strain AB032, ETX2514 at 4 mg/liter in combination): 16 µg/mL | MIC ([1]; strain AB033, ETX2514 at 4 mg/liter in combination): 64 µg/mL | MIC ([1]; strain AB034, ETX2514 at 4 mg/liter in combination): 16 µg/mL | MIC ([1]; strain AB035, ETX2514 at 4 mg/liter in combination): 16 µg/mL | MIC ([1]; strain AB036, ETX2514 at 4 mg/liter in combination): 16 µg/mL | MIC ([1]; strain AB037, ETX2514 at 4 mg/liter in combination): 64 µg/mL | MIC ([1]; strain AB038, ETX2514 at 4 mg/liter in combination): 16 µg/mL | MIC ([1]; strain AB039, ETX2514 at 4 mg/liter in combination): 4 µg/mL | MIC ([1]; strain AB040, ETX2514 at 4 mg/liter in combination): 32 µg/mL | MIC ([1]; strain AB041, ETX2514 at 4 mg/liter in combination): 16 µg/mL | MIC ([1]; strain AB042, ETX2514 at 4 mg/liter in combination): 4 µg/mL | MIC ([1]; strain AB043, ETX2514 at 4 mg/liter in combination): 4 µg/mL | MIC ([1]; strain AB044, ETX2514 at 4 mg/liter in combination): 4 µg/mL | MIC ([1]; strain AB045, ETX2514 at 4 mg/liter in combination): 2 µg/mL | MIC ([1]; strain AB046, ETX2514 at 4 mg/liter in combination): 4 µg/mL | MIC ([1]; strain AB047, ETX2514 at 4 mg/liter in combination): 4 µg/mL | MIC ([1]; strain AB048, ETX2514 at 4 mg/liter in combination): 4 µg/mL | MIC ([1]; strain AB049, ETX2514 at 4 mg/liter in combination): 4 µg/mL | MIC ([1]; strain AB050, ETX2514 at 4 mg/liter in combination): 4 µg/mL | MIC ([1]; strain AB051, ETX2514 at 4 mg/liter in combination): 2 µg/mL | MIC ([1]; strain AB052, ETX2514 at 4 mg/liter in combination): 64 µg/mL | MIC ([1]; strain AB053, ETX2514 at 4 mg/liter in combination): 32 µg/mL | MIC ([1]; strain AB054, ETX2514 at 4 mg/liter in combination): 64 µg/mL | MIC ([1]; strain AB055, ETX2514 at 4 mg/liter in combination): 16 µg/mL | MIC ([1]; strain AB056, ETX2514 at 4 mg/liter in combination): 8 µg/mL | MIC ([1]; strain AB057, ETX2514 at 4 mg/liter in combination): 16 µg/mL | MIC ([1]; strain AB058, ETX2514 at 4 mg/liter in combination): 32 µg/mL | MIC ([1]; strain AB059, ETX2514 at 4 mg/liter in combination): 32 µg/mL | MIC ([1]; strain AB060, ETX2514 at 4 mg/liter in combination): 8 µg/mL | MIC ([1]; strain AB061, ETX2514 at 4 mg/liter in combination): 8 µg/mL | MIC ([1]; strain AB062, ETX2514 at 4 mg/liter in combination): 8 µg/mL | MIC ([1]; strain AB063, ETX2514 at 4 mg/liter in combination): 32 µg/mL | MIC ([1]; strain AB064, ETX2514 at 4 mg/liter in combination): 8 µg/mL | MIC ([1]; strain AB065, ETX2514 at 4 mg/liter in combination): 8 µg/mL | MIC ([1]; strain AB066, ETX2514 at 4 mg/liter in combination): 4 µg/mL | MIC ([1]; strain AB067, ETX2514 at 4 mg/liter in combination): 4 µg/mL | MIC ([1]; strain AB068, ETX2514 at 4 mg/liter in combination): 4 µg/mL | MIC ([1]; strain AB069, ETX2514 at 4 mg/liter in combination): 4 µg/mL | MIC ([1]; strain AB070, ETX2514 at 4 mg/liter in combination): 32 µg/mL | MIC ([1]; strain AB071, ETX2514 at 4 mg/liter in combination): 8 µg/mL | MIC ([1]; strain AB072, ETX2514 at 4 mg/liter in combination): 4 µg/mL | MIC ([1]; strain CCF 1MR, carbapenem resistant, ETX2514 at 4 mg/liter in combination): 32 µg/mL | MIC ([1]; strain CCF 2MR, carbapenem resistant, ETX2514 at 4 mg/liter in combination): 16 µg/mL | MIC ([1]; strain CCF 3MR, carbapenem resistant, ETX2514 at 4 mg/liter in combination): 4 µg/mL | MIC ([1]; strain CCF 4MR, carbapenem resistant, ETX2514 at 4 mg/liter in combination): 16 µg/mL | MIC ([1]; strain CCF 5MR, carbapenem resistant, ETX2514 at 4 mg/liter in combination): 16 µg/mL | MIC ([1]; strain CCF 6MR, carbapenem resistant, ETX2514 at 4 mg/liter in combination): 16 µg/mL | MIC ([1]; strain CCF 7MR, carbapenem resistant, ETX2514 at 4 mg/liter in combination): 32 µg/mL | MIC ([1]; strain CCF 8MR, carbapenem resistant, ETX2514 at 4 mg/liter in combination): 8 µg/mL | MIC ([1]; strain UH AB202, carbapenem resistant, ETX2514 at 4 mg/liter in combination): 16 µg/mL | MIC ([1]; strain UH AB461, carbapenem resistant, ETX2514 at 4 mg/liter in combination): 8 µg/mL | MIC ([1]; strain UH AB477, carbapenem resistant, ETX2514 at 4 mg/liter in combination): 16 µg/mL | MIC ([1]; strain UH AB487, carbapenem resistant, ETX2514 at 4 mg/liter in combination): 16 µg/mL | MIC ([1]; strain UH AB489, carbapenem resistant, ETX2514 at 4 mg/liter in combination): 16 µg/mL | MIC ([1]; strain UH AB490, carbapenem resistant, ETX2514 at 4 mg/liter in combination): 16 µg/mL | MIC ([1]; strain UH AB491, carbapenem resistant, ETX2514 at 4 mg/liter in combination): 16 µg/mL | MIC ([1]; strain UH AB636, carbapenem resistant, ETX2514 at 4 mg/liter in combination): 16 µg/mL | MIC ([1]; strain UH AB660, carbapenem resistant, ETX2514 at 4 mg/liter in combination): 16 µg/mL | MIC ([1]; strain UH AB667, carbapenem resistant, ETX2514 at 4 mg/liter in combination): 32 µg/mL | MIC ([1]; strain VA-432, carbapenem resistant, ETX2514 at 4 mg/liter in combination): 16 µg/mL | MIC ([1]; strain VA-433, carbapenem resistant, ETX2514 at 4 mg/liter in combination): 16 µg/mL | MIC ([1]; strain VA-434, carbapenem resistant, ETX2514 at 4 mg/liter in combination): 16 µg/mL | MIC ([1]; strain VA-435, carbapenem resistant, ETX2514 at 4 mg/liter in combination): 16 µg/mL | MIC ([1]; strain VA-436, carbapenem resistant, ETX2514 at 4 mg/liter in combination): 16 µg/mL | MIC ([1]; strain VA-437, carbapenem resistant, ETX2514 at 4 mg/liter in combination): 8 µg/mL | MIC ([1]; strain VA-438, carbapenem resistant, ETX2514 at 4 mg/liter in combination): 8 µg/mL | MIC ([1]; strain VA-505, carbapenem resistant, ETX2514 at 4 mg/liter in combination): 8 µg/mL | MIC ([2]; ATCC 17978 ΔadeB/ΔadeJ): 1 µg/mL | MIC ([2]; ATCC 17978 ΔadeB): 1 µg/mL | MIC ([2]; ATCC 17978 ΔadeJ): 1 µg/mL | MIC (A. nosocomialis (M2); M2 WT): 2 µg/mL | MIC (A. nosocomialis (M2); M2 ΔadeB/ΔadeJ): 2 µg/mL | MIC (A. nosocomialis (M2); M2 ΔadeJ): 2 µg/mL | Log10 CFU/g (A. baumannii ARC5955 [3]): 9.0 log10 CFU/g | Change in log10 CFU/g (A. baumannii ARC5955 [3]): 2.5 log10 CFU/g | Change in log10 CFU/g (A. baumannii ARC5955 [3]; listed as sulbactam): > 2 log10 CFU/g | substrate quality for the enzyme (OXA-66 β-lactamase): very poor substrate | MIC90 (A. baumannii isolates): 64 µg/mL (≈ 274 µM) | MIC (A. baumannii ARC5955 [4]): 64 µg/mL (≈ 274 µM)
